In patent publication US9650364B2, “Quinazolines as kinase inhibitors” (GlaxoSmithKline Intellectual Property Development Limited, priority 2013, dated 2017):
Like-named read-outs stand apart in the source and are kept apart here.

Columns and labels:
[1] = system: RIP2 kinase-dependent cytokine production (TNFα) in human whole blood; assay: MDP-stimulated human whole blood cytokine (TNFα) production assay; assay type: cell-based; conditions: inhibition of TNFα, MDP 100 ng/mL, 6 hr, mean of minimum 2 experiments
Description: A muramyl dipeptide (MDP)-stimulated human whole blood cytokine production assay was developed to evaluate the cellular potency and efficacy of novel test compounds. Heparinized blood (160 μL) obtained from healthy human volunteers was dispensed into individual wells of a multiwell plate. Test compounds were dissolved in 100% DMSO and diluted in calcium- and magnesium-free D-PBS to prepare 10× working stock solutions. Twenty microliters of diluted test compound was added per well and the plates were placed on a plate shaker (500 rpm) and incubated for 30 min in a humidified incubator (37° C., 5% CO2). A 10× working stock of MDP was prepared in sterile, endotoxin-free water containing 1% DMSO. Twenty microliters of the MDP stock solution was added per well (final conc.=100 ng/mL) to stimulate RIP2 kinase-dependent cytokine production. The final concentration of DMSO was 0.1% (v/v) in all wells. Plates were incubated for an additional 6 hr (as noted above). Then an additional 100 μL of D-PBS (Dulbecco's phosphate-buffered saline) was added/well, the plates were centrifuged, and supernatants collected. TNFα levels in the supernatants were quantified using a commercial immunoassay (MesoScale Discovery). Test compound inhibition was expressed as percent (%) inhibition of internal assay controls. For concentration/dose response experiments, normalized data were fit and pIC50s determined using conventional techniques. The pIC50s are averaged to determine a mean value, for a minimum of 2 experiments.

[2] = biological target: T1, RIPK2 (full length FLAG His tagged) (Homo sapiens, UniProt O43353); assay: Fluorescent polarization based binding assay at the ATP binding pocket of RIPK2; conditions: RIPK2 FP binding
T1 construct: Full length FLAG His tagged RIPK2 was purified from a Baculovirus expression system; FLAG (N); 6His (N); made in house; host or cells: Spodoptera frugiperda (Sf9) insect cells, baculovirus
T1 sequence (O43353 whole entry): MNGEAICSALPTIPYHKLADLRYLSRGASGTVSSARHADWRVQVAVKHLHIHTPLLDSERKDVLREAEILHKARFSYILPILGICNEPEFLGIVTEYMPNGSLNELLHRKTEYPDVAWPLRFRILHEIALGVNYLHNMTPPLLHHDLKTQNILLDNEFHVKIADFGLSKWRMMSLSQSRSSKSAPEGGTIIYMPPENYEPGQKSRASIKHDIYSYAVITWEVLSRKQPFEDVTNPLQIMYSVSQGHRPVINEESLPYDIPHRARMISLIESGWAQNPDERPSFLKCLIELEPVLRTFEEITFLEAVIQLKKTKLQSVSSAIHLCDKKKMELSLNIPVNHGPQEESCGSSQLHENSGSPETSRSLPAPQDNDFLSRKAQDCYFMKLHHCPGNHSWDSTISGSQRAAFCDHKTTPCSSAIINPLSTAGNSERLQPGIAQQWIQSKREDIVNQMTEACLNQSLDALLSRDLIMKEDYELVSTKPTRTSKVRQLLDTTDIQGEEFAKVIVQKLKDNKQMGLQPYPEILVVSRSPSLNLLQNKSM
Description: A fluorescent polarization based binding assay was developed to quantitate interaction of novel test compounds at the ATP binding pocket of RIPK2, by competition with a fluorescently labeled ATP competitive ligand. Full length FLAG His tagged RIPK2 was purified from a Baculovirus expression system and was used at a final assay concentration of twice the KDapparent. A fluorescent labeled ligand (5-({[2-({[3-({4-[(5-hydroxy-2-methylphenyl)amino]-2-pyrimidinyl}amino)phenyl]carbonyl}amino)ethyl]amino}carbonyl)-2-(6-hydroxy-3-oxo-3H-xanthen-9-yl)benzoic acid, prepared as described in WO2011/120025) was used at a final assay concentration of 5 nM. Both the enzyme and ligand were prepared in solutions in 50 mM HEPES pH7.5, 150 mM NaCl, 10 mM MgCl2, 1 mM DTT, and 1 mM CHAPS. Test compounds were prepared in 100% DMSO and 100 nL was dispensed to individual wells of a multiwell plate. Next, 5 ul RIPK2 was added to the test compounds at twice the final assay concentration, and incubated at rt for 10 min. Following the incubation, 5 ul of the fluorescent labeled ligand solution, was added to each reaction, at twice the final assay concentration, and incubated at rt for at least 10 min. Finally, samples were read on an instrument capable of measuring fluorescent polarization. Test compound inhibition was expressed as percent (%) inhibition of internal assay controls.
For concentration/dose response experiments, normalized data were fit and pIC50s determined using conventional techniques. The pIC50s are averaged to determine a mean value, for a minimum of 2 experiments.
Full-length human RIPK2 (receptor-interacting serine-threonine kinase 2) cDNA was purchased from Invitrogen (Carlsbad, Calif., USA, Clone ID:IOH6368, RIPK2-pENTR 221). Gateway® LR cloning was used to site-specifically recombine RIPK2 downstream to an N-terminal FLAG-6His contained within the destination vector pDEST8-FLAG-His6 according to the protocol described by Invitrogen. Transfection into Spodoptera frugiperda (Sf9) insect cells was performed using Cellfectin® (Invitrogen), according to the manufacturer's protocol.

[3] = system: isolated rabbit left ventricular wedge preparation; assay: Rabbit cardiac wedge preparation (ECG and isometric contractile force); conditions: for TdP Score: BCL=2000 ms, score range −2 to 14; for TdP Score / ICF (% change), contractility / QRS / QT / Tp-e (msec), transmural dispersion / Δ QT %: mean, n = 2; for Proarrhythmia: preparations affected of n = 2
Description: Female rabbits weighing 2.2-3 kg were anticoagulated with heparin and anesthetized with pentobarbital (50 mg/kg, i.v.). The chest was opened via a left thoracotomy, and the heart was excised and placed in a cardioplegic solution consisting of cold (4° C.) normal Tyrode's solution. A transmural wedge with dimensions of approximately 1.5 cm wide and 2-3 cm long was dissected from the left ventricle.
The wedge tissue was cannulated via the left anterior descending artery or the circumflex artery and perfused with cardioplegic solution. The preparation was then placed in a small tissue bath and arterially perfused with Tyrode's solution (T: 35.7±0.1° C., perfusion pressure: 30-45 mmHg). The ventricular wedge was allowed to equilibrate in the tissue bath until electrically stable, usually one hour. The preparations were stimulated at basic cycle lengths (BCL) of 1000 and 2000 msec using bipolar silver electrodes insulated except at the tips and applied to the endocardial surface.
A transmural electrocardiogram (ECG) was recorded in all experiments using extracellular silver/silver chloride electrodes placed in the Tyrode's solution bathing the preparation 1.0 to 1.5 cm from the epicardial and endocardial surfaces, along the same vector as the transmembrane recordings (Epi: “+” pole). On the ECG, transmural dispersion of repolarization (TDR) was defined by the interval between the end and the peak of T wave (Tp-e). The QT interval was defined as the time from the onset of the QRS to the point at which the final downslope of the T wave crossed the isoelectric line. QRS, QT, and Tp-e durations are measured for 10 sweeps and averaged per treatment. Data from total population of animals is averaged per treatment, and compared to average control values.
isometric contractile force generation (% ICF) is measured for 10 sweeps and averaged per treatment. Data from total population of animals is averaged per treatment, and compared to average control values.
Each test compound was prepared in 100% DMSO at a stock concentration of 30 mM. Compound was diluted to the highest concentration tested into Tyrode's buffer (containing in mM: 129 NaCl, 4 KCl, 0.9 NaH2PO4, 20 NaHCO3, 1.8 CaCl2, 0.5 MgSO4, and 5.5 glucose, pH 7.4 when buffered with 95% O2 and 5% CO2) from which subsequent serial dilutions were prepared.
Each test compound was tested at 4 concentrations, from 1-30 μM. After the wedge preparations were perfused with normal Tyrode's solution and stimulated at a BCL of 1000 msec for one hour, stimulation frequency was reduced to a BCL of 2000 msec for a 5 minute period of stabilization after which baseline ECG and isometric contractile force (ICF) were recorded. The preparations were then returned to a BCL of 1000 msec and perfused with Tyrode's solution containing a test compound. For each test compound concentration, wedge preparations were perfused for 20 minutes at a BCL of 1000 msec followed by 5 minutes at a BCL of 2000 msec during which ECG and ICF were recorded. The compound of Example 2 (6-(tert-butylsulfonyl)-N-(4,5-dimethyl-1H-pyrazol-3-yl)-7-ethoxyquinazolin-4-amine) was evaluated in the rabbit cardiac wedge preparation. The four major readouts from the wedge preparation include QT prolongation, torsadogenicity (TdP score derived from QT, Tp-e and early after depolarizations), impulse conduction (QRS-related) and contractility, which are presented in Table 2.
A scoring system was used for the estimate of risk of a compound for the relative TdP risk using the isolated rabbit left ventricular wedge preparation: points for the QT interval, the Tp-e/QT ratio. The TdP score was generated by first converting the QT interval and Tp-e/QT ratio to % change from baseline. These values are individually assigned a TdP score based on the following system: <−5%=−1, −5% to 10%=0, 10% to 20%=1, 20% to 30%=2, >30%=3. Total scoring system range is −2 to 14 at BCL=2000 ms.

[4] = system: 337 member kinase panel; assay: Kinome selectivity, in vitro profiling (Reaction Biology Corporation); assay type: biochemical; conditions: compound at 1 μM
Description: Kinome selectivity (as conducted by Reaction Biology Corporation, One Great Valley Parkway, Malvern, Pa., USA, 19355, http://www.reactionbiology.com) for the compound of Example 2 (6-(tert-butylsulfonyl)-N-(4,5-dimethyl-1H-pyrazol-3-yl)-7-ethoxyquinazolin-4-amine) was determined via in vitro profiling against a 337 member kinase panel.

[5] = mean of minimum 2 experiments, read-out: pIC50 (converted)
[6] = updated average after continued testing, read-out: average pIC50 after continued testing (converted)

`COCCOc1cc2ncnc(Nc3n[nH]c(C)c3C)c2cc1S(=O)(=O)C(C)(C)C` [Example 1, 6-(tert-Butylsulfonyl)-N-(4,5-dimethyl-1H-pyrazol-3-yl)-7-(2-methoxyethoxy)quinazolin-4-amine] gave an IC50 [1] of 39.8 nM, an IC50 [2, 5] of 39.8 nM and an IC50 [2, 6] of 31.6 nM.
`CCOc1cc2ncnc(Nc3n[nH]c(C)c3C)c2cc1S(=O)(=O)C(C)(C)C` [Example 2, 6-(tert-Butylsulfonyl)-N-(4,5-dimethyl-1H-pyrazol-3-yl)-7-ethoxyquinazolin-4-amine] was tested, and the “TdP Score” value ([3]; 1 μM) was −0.50, the “ICF (% change), contractility” value ([3]; 1 μM) was −4.4% and the “QRS” value ([3]; 1 μM) was 39.6 ms. For the same compound, the “QT” value ([3]; 1 μM) was 346.4 ms, the “Tp-e (msec), transmural dispersion” value ([3]; 1 μM) was 71.9 ms and the “Δ QT %” value ([3]; 1 μM) was 3%. The Proarrhythmia ([3]; 1 μM) was 0/2, the “TdP Score” value ([3]; 3 μM) was 0.00 and the “ICF (% change), contractility” value ([3]; 3 μM) was −5.3%. The “QRS” value ([3]; 3 μM) was 39.2 ms, the “QT” value ([3]; 3 μM) was 351.9 ms and the “Tp-e (msec), transmural dispersion” value ([3]; 3 μM) was 73.2 ms. For the same compound, the “Δ QT %” value ([3]; 3 μM) was 4.8%, the Proarrhythmia ([3]; 3 μM) was 0/2 and the “TdP Score” value ([3]; 10 μM) was −0.50. For the same compound, the “ICF (% change), contractility” value ([3]; 10 μM) was −15.1%, the “QRS” value ([3]; 10 μM) was 39.4 ms and the “QT” value ([3]; 10 μM) was 348.8 ms. For the same compound, the “Tp-e (msec), transmural dispersion” value ([3]; 10 μM) was 68.4 ms, the “Δ QT %” value ([3]; 10 μM) was 4.0% and the Proarrhythmia ([3]; 10 μM) was 0/2. The “TdP Score” value ([3]; 30 μM) was −0.50, the “ICF (% change), contractility” value ([3]; 30 μM) was −20.7% and the “QRS” value ([3]; 30 μM) was 39.7 ms. The “QT” value ([3]; 30 μM) was 348.8 ms, the “Tp-e (msec), transmural dispersion” value ([3]; 30 μM) was 69.1 ms and the “Δ QT %” value ([3]; 30 μM) was 4.0%. For the same compound, the Proarrhythmia ([3]; 30 μM) was 0/2, the IC50 [1] was 63.1 nM and the IC50 [2, 5] was 15.8 nM. The “number of kinases with >50% inhibition, of 337 kinases tested” value [4] was 4 and the “number of kinases with >70% inhibition, of 337 kinases tested” value [4] was 1.
`CCCOc1cc2ncnc(Nc3n[nH]c(C)c3C)c2cc1S(=O)(=O)C(C)(C)C` [Example 3, 6-(tert-Butylsulfonyl)-N-(4,5-dimethyl-1H-pyrazol-3-yl)-7-propoxyquinazolin-4-amine] was tested, and the IC50 [1] was 100 nM, the IC50 [2, 5] was 12.6 nM and the IC50 [2, 6] was 7.94 nM.
Work on `Cc1[nH]nc(Nc2ncnc3cc(OCC4CCCO4)c(S(=O)(=O)C(C)(C)C)cc23)c1C` (stereo not shown) [Example 4, 6-(tert-Butylsulfonyl)-N-(4,5-dimethyl-1H-pyrazol-3-yl)-7-((tetrahydrofuran-2-yl)methoxy)quinazolin-4-amine] yielded an IC50 [1] of 63.1 nM and an IC50 [2, 5] of 10 nM.
